Experimental data: PubChem BioAssay AID328 (DTP/NCI, 2004)
Several values for one entry are separate records, joined by “and”; a condition that tells them apart may be missing. Equal values may be shown once. Toxic doses and inconclusive results are not listed. The calls were made as follows: active = survival T/C of 150% or more; inactive = T/C below 125% in these data.

Test system: BDF1 mice, P388 leukemia ip, median survival T/C
Assay: NCI In Vivo Anticancer Drug Screen. Data for tumor model P388 Leukemia (intraperitoneal) in B6D2F1 (BDF1) mice
Conditions: endpoint: median survival time, higher = longer survival
In short: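 Reported as T/C, where T is the survival measurement in dosed animals and C the same measurement in vehicle controls.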

[1] = dose: 20.0 mg/kg/injection, schedule: Q01DX009 (ip), vehicle: Klucel (hydroxypropylcellulose) (HPC)

Measured: T/C

Nc1ncn(C2OC(CO)C(O)C2O)c(=O)n1 (stereo unspecified)
active: dose: 0.38 mg/kg/injection, schedule: Q01DX009 (ip), vehicle: saline 150 % of control | dose: 0.75 mg/kg/injection, schedule: Q01DX009 (ip), vehicle: saline 181 % of control | dose: 0.9 mg/kg/injection, schedule: Q01DX009 (ip), vehicle: saline 210 % of control | dose: 1.0 mg/kg/injection, schedule: Q01DX005 (ip), vehicle: saline 166 % of control | dose: 1.5 mg/kg/injection, schedule: Q01DX009 (ip), vehicle: saline 195 % of control and 202 % of control | dose: 1.9 mg/kg/injection, schedule: Q01DX009 (ip), vehicle: saline 235 % of control | dose: 2.0 mg/kg/injection, schedule: Q01DX005 (ip), vehicle: saline 201 % of control | dose: 2.2 mg/kg/injection, schedule: Q01DX009 (ip), vehicle: saline 235 % of control and 236 % of control and 216 % of control | dose: 3.3 mg/kg/injection, schedule: Q01DX009 (ip), vehicle: saline 260 % of control and 275 % of control and 280 % of control | dose: 4.0 mg/kg/injection, schedule: Q01DX005 (ip), vehicle: saline 204 % of control | dose: 4.25 mg/kg/injection, schedule: Q04DX003 (ip), vehicle: saline 172 % of control | dose: 5.0 mg/kg/injection, schedule: Q01DX009 (ip), vehicle: saline 254 % of control and 336 % of control and 365 % of control | dose: 5.0 mg/kg/injection, schedule: Q04DX004 (ip), vehicle: saline 207 % of control | dose: 6.48 mg/kg/injection, schedule: Q04DX003 (ip), vehicle: saline 220 % of control | dose: 7.0 mg/kg/injection, schedule: Q04DX004 (ip), vehicle: saline 216 % of control | dose: 10.8 mg/kg/injection, schedule: Q04DX003 (ip), vehicle: saline 177 % of control | dose: 11.0 mg/kg/injection, schedule: Q04DX004 (ip), vehicle: saline 248 % of control | dose: 12.0 mg/kg/injection, schedule: Q04DX003 (ip), vehicle: saline 225 % of control | dose: 16.0 mg/kg/injection, schedule: Q04DX004 (ip), vehicle: saline 272 % of control | dose: 19.0 mg/kg/injection, schedule: Q04DX003 (ip), vehicle: saline 233 % of control | dose: 20.0 mg/kg/injection, schedule: Q04DX004 (ip), vehicle: saline 165 % of control | dose: 44.0 mg/kg/injection, schedule: Q01DX001 (ip), vehicle: saline 176 % of control | dose: 49.0 mg/kg/injection, schedule: Q01DX001 (ip), vehicle: saline 170 % of control | dose: 73.0 mg/kg/injection, schedule: Q01DX001 (ip), vehicle: saline 176 % of control and 182 % of control | dose: 110.0 mg/kg/injection, schedule: Q01DX001 (ip), vehicle: saline 157 % of control and 190 % of control
226 % of control and 106 % of control: dose: 15.0 mg/kg/injection, schedule: Q04DX004 (ip), vehicle: saline
inactive: dose: 0.16 mg/kg/injection, schedule: Q01DX009 (ip), vehicle: saline 91 % of control | dose: 0.25 mg/kg/injection, schedule: Q01DX009 (ip), vehicle: saline 116 % of control | dose: 3.0 mg/kg/injection, schedule: Q01DX009 (ip), vehicle: saline 100 % of control | dose: 6.0 mg/kg/injection, schedule: Q01DX009 (ip), vehicle: saline 104 % of control | dose: 7.5 mg/kg/injection, schedule: Q01DX009 (ip), vehicle: saline 100 % of control | dose: 8.5 mg/kg/injection, schedule: Q01DX009 (ip), vehicle: saline 90 % of control | dose: 150.0 mg/kg/injection, schedule: Q01DX001 (ip), vehicle: saline 120 % of control
112 % of control and 219 % of control: dose: 10.0 mg/kg/injection, schedule: Q04DX004 (ip), vehicle: saline

O=C(O)/C=C/c1c(Cl)cccc1Cl
inactive: dose: 50.0 mg/kg/injection, schedule: Q01DX009 (ip), vehicle: saline with Tween-80 106 % of control | dose: 100.0 mg/kg/injection, schedule: Q01DX009 (ip), vehicle: saline with Tween-80 113 % of control

CC(C)(C)COC(=O)CCN1CC1
inactive: dose: 2.5 mg/kg/injection, schedule: Q01DX009 (ip), vehicle: Klucel (hydroxypropylcellulose) (HPC) 116 % of control | dose: 5.0 mg/kg/injection, schedule: Q01DX009 (ip), vehicle: Klucel (hydroxypropylcellulose) (HPC) 111 % of control | dose: 10.0 mg/kg/injection, schedule: Q01DX009 (ip), vehicle: Klucel (hydroxypropylcellulose) (HPC) 122 % of control | [1] 100 % of control | dose: 20.0 mg/kg/injection, schedule: Q04DX003 (ip), vehicle: Klucel (hydroxypropylcellulose) (HPC) 95 % of control | dose: 40.0 mg/kg/injection, schedule: Q04DX003 (ip), vehicle: Klucel (hydroxypropylcellulose) (HPC) 100 % of control | dose: 80.0 mg/kg/injection, schedule: Q04DX003 (ip), vehicle: Klucel (hydroxypropylcellulose) (HPC) 109 % of control

CCNC(=O)N(CC(N)=O)c1ncc([N+](=O)[O-])s1
inactive: dose: 12.5 mg/kg/injection, schedule: Q01DX001 (ip), vehicle: saline with Tween-80 98 % of control | dose: 25.0 mg/kg/injection, schedule: Q01DX001 (ip), vehicle: saline with Tween-80 106 % of control | dose: 50.0 mg/kg/injection, schedule: Q01DX001 (ip), vehicle: saline with Tween-80 98 % of control | dose: 50.0 mg/kg/injection, schedule: Q01DX005 (ip), vehicle: saline with Tween-80 94 % of control | dose: 100.0 mg/kg/injection, schedule: Q01DX001 (ip), vehicle: saline with Tween-80 93 % of control | dose: 100.0 mg/kg/injection, schedule: Q01DX005 (ip), vehicle: saline with Tween-80 86 % of control | dose: 200.0 mg/kg/injection, schedule: Q01DX001 (ip), vehicle: saline with Tween-80 98 % of control | dose: 200.0 mg/kg/injection, schedule: Q01DX005 (ip), vehicle: saline with Tween-80 96 % of control

N=c1c2c(C(N)=O)cn(C3OC(CO)C(O)C3O)c2ncn1O (stereo unspecified)
inactive: dose: 0.75 mg/kg/injection, schedule: Q01DX009 (ip), vehicle: saline with Tween-80 122 % of control | dose: 2.0 mg/kg/injection, schedule: Q04DX003 (ip), vehicle: saline with Tween-80 122 % of control | dose: 4.4 mg/kg/injection, schedule: Q04DX003 (ip), vehicle: saline with Tween-80 117 % of control | dose: 15.0 mg/kg/injection, schedule: Q04DX003 (ip), vehicle: saline with Tween-80 123 % of control
active: dose: 1.5 mg/kg/injection, schedule: Q01DX009 (ip), vehicle: saline with Tween-80 154 % of control | dose: 2.0 mg/kg/injection, schedule: Q01DX009 (ip), vehicle: saline with Tween-80 180 % of control | dose: 2.9 mg/kg/injection, schedule: Q04DX003 (ip), vehicle: saline with Tween-80 160 % of control | dose: 6.7 mg/kg/injection, schedule: Q04DX003 (ip), vehicle: saline with Tween-80 166 % of control | dose: 10.0 mg/kg/injection, schedule: Q04DX003 (ip), vehicle: saline with Tween-80 190 % of control

CCCS(=O)(=O)N(CC(=O)O)Cc1ccccc1
inactive: dose: 25.0 mg/kg/injection, schedule: Q04DX003 (ip), vehicle: other 106 % of control | dose: 50.0 mg/kg/injection, schedule: Q04DX003 (ip), vehicle: other 104 % of control | dose: 100.0 mg/kg/injection, schedule: Q04DX003 (ip), vehicle: other 100 % of control | dose: 200.0 mg/kg/injection, schedule: Q04DX003 (ip), vehicle: other 106 % of control | dose: 400.0 mg/kg/injection, schedule: Q04DX003 (ip), vehicle: other 106 % of control

CC1OC(=O)C(C(C)C)NC(=O)C(C(C)C)OC(=O)C(C(C)C)NC(=O)C(C)OC(=O)C(C(C)C)NC(=O)C(C(C)C)OC(=O)C(C(C)C)NC(=O)C(C)OC(=O)C(C(C)C)NC(=O)C(C(C)C)OC(=O)C(C(C)C)NC1=O (stereo unspecified)
inactive: dose: 3.12 mg/kg/injection, schedule: Q04DX003 (ip), vehicle: Klucel (hydroxypropylcellulose) (HPC) 100 % of control | dose: 6.25 mg/kg/injection, schedule: Q04DX003 (ip), vehicle: Klucel (hydroxypropylcellulose) (HPC) 107 % of control
active: dose: 4.5 mg/kg/injection, schedule: Q01DX009 (ip), vehicle: saline 162 % of control | dose: 10.0 mg/kg/injection, schedule: Q01DX009 (ip), vehicle: saline 183 % of control | dose: 12.5 mg/kg/injection, schedule: Q04DX003 (ip), vehicle: Klucel (hydroxypropylcellulose) (HPC) 169 % of control | dose: 15.0 mg/kg/injection, schedule: Q01DX009 (ip), vehicle: saline 177 % of control | [1] 165 % of control

CC(=N\O)/C(=N\O)C(=O)c1ccccc1
inactive: dose: 100.0 mg/kg/injection, schedule: Q01DX009 (ip), vehicle: other 91 % of control | dose: 100.0 mg/kg/injection, schedule: Q04DX003 (ip), vehicle: saline with Tween-80 95 % of control | dose: 200.0 mg/kg/injection, schedule: Q04DX003 (ip), vehicle: saline with Tween-80 95 % of control | dose: 400.0 mg/kg/injection, schedule: Q04DX003 (ip), vehicle: saline with Tween-80 90 % of control
